Assay results from patent US20120295965A1, “FUSED THIOPHENES AS DUAL INHIBITORS OF EGFR/VEGFR AND THEIR USE IN THE TREATMENT OF CANCER” (priority 2009, published 2012).

Columns and labels:
[1] = tested on: mallotoxin response in HT29; assay: Epic label-free DMR biosensor cellular assay, hERG activator mallotoxin marker in HT29
Experimental: HT29 expresses VEGFR1 (Flt1 receptor), but not other VEGF receptors.
(§1) All cell lines were obtained from American Type Cell Culture (Manassas, Va.). The cell culture medium was as follows: (1) Dulbecco's modified Eagle's medium (DMEM) supplemented with 10% fetal bovine serum (FBS), 4.5 g/liter glucose, 2 mM glutamine, and antibiotics for human epidermoid carcinoma A431; and (2) McCoy's 5a Medium Modified supplemented with 10% FBS, 4.5 g/liter glucose, 2 mM glutamine, and antibiotics for human colorectal adenocarcinoma HT29.
(§2) Cells were typically grown using ˜1 to 2×10^4 cells per well at passage 3 to 15 suspended in 50 μl of the corresponding culture medium in the biosensor microplate, and were cultured at 37° C. under air/5% CO2 for ˜1 day. Except for A431 which underwent one day culture followed by one starvation in serum free medium, all other cells were directly assayed without starvation.
(§3) Epic® beta version wavelength interrogation system (Corning Inc., Corning, N.Y.) was used for whole cell sensing. This system consists of a temperature-control unit, an optical detection unit, and an on-board liquid handling unit with robotics. The detection unit is centered on integrated fiber optics, and enables kinetic measures of cellular responses with a time interval of ˜15 sec.
For biosensor cellular assays, molecule solutions were made by diluting the stored concentrated solutions with the HBSS (1× Hanks balanced salt solution, plus 20 mM Hepes, pH 7.1), and transferred into a 384well polypropylene molecule storage plate to prepare a molecule source plate. Both molecule and marker source plates were made separately when a two-step assay was performed. In parallel, the cells were washed twice with the HBSS and maintained in 30 μl of the HBSS to prepare a cell assay plate. Both the cell assay plate and the molecule and marker source plate(s) were then incubated in the hotel of the reader system. After ˜1 hr of incubation the baseline wavelengths of all biosensors in the cell assay microplate were recorded and normalized to zero. Afterwards, a 2 to 10 minute continuous recording was carried out to establish a baseline, and to ensure that the cells reached a steady state. Cellular responses were then triggered by pipetting 10 μl of the marker solutions into the cell assay plate using the on-board liquid handler.
(§4) To study the influence of molecules on a marker-induced response, a second stimulation with the marker at a fixed dose (typically at EC80 or EC100) was applied. The resonant wavelengths of all biosensors in the microplate were normalized again to establish a second baseline, right before the second stimulation. The two stimulations were usually separated by ˜1 hr.
(§5) All studies were carried out at a controlled temperature (28° C.). At least two independent sets of experiments, each with at least three replicates, were performed.
(§6) The DMR modulation index were generated against 4 markers across two distinct cell lines—the EGFR agonist EGF in A431 (EGF at 32 nM), and the EGFR agonist EGF in HT29 (EGF at 2 nM), the hERG activator mallotoxin (MTX) in HT29 (MTX at 16 micromlar), and the NTS1/NTS3 agonist neurotensin (NT) in HT29 (NT at 2 nM). The EGF responses in A431 cells include the early P-DMR event (˜5 min after EGF stimulation) and the subsequent N-DMR event (˜30 min after EGF stimulation). The EGF responses in HT29 include the early P-DMR event (˜5 min after EGF stimulation) and the late P-DMR event (˜50 min after EGF stimulation), whereas the mallotoxin response in HT29 is the P-DMR response 50 min after MTX stimulation, and the NT response in HT29 is the P-DMR 50 min after NT stimulation. In all cases, the amplitudes of respective DMR events were used as the basis to calculate the percentages of modulation by each inhibitor.

[2] = tested on: NT response in HT29; assay: Epic label-free DMR biosensor cellular assay, neurotensin marker in HT29; assay type: cell-based, human
Experimental: The NTS1 natural agonist neurotensin is known to activate the endogenous NTS1/NTS3 heterodimers in HT29 cells. […] Thus, neurotensin was chosen as an indirect marker for identifying potential EGFR inhibitors.
as §1
as §2, with “starvation. The confluency for all cells at the time of assays was ˜95% to 100%.” for “starvation.”
as §3, §4, §5, §6

[3] = tested on: EGF response in A431 cells; assay: Epic label-free DMR biosensor cellular assay, EGF marker in A431; assay type: cell-based, human
Experimental: as §1
as §2, with “starvation. The confluency for all cells at the time of assays was ˜95% to 100%.” for “starvation.”
as §3, §4, §5, §6

[4] = tested on: EGF response in HT29; assay: Epic label-free DMR biosensor cellular assay, EGF marker in HT29; assay type: cell-based, human
Experimental: as §1
as §2, with “starvation. The confluency for all cells at the time of assays was ˜95% to 100%.” for “starvation.”
as §3, §4, §5, §6

[5] = target: T1, VEGFR1 (FLT1) (Homo sapiens, UniProt P17948); assay: LanthaScreen TR-FRET kinase assay, VEGFR1 (FLT1); assay type: biochemical
T1 construct: purchased Invitrogen
Experimental: (§7) LanthaScreen TR-FRET kinase assay reagents and the recombinant EGFR, VEGFR1 (FLT1), VEGFR2 (KDR) were purchased from Invitrogen. Known kinase inhibitors were used as positive controls.
(§8) Each EGFR reaction contains 51 ng/ml kinase, 2.4 μM ATP and 0.2 μM substrate. […] Each VEGFR2 (KDR) reaction contains 4 ng/ml kinase, 13 μM ATP and 0.2 μM substrate. Kinase reactions are allowed to proceed for 1 hour at room temperature before a 10 μl preparation of EDTA (20 mM) and Tb-labeled antibody (4 nM) in TR-FRET dilution buffer are added. The final concentration of antibody in the assay well is 2 nM, and the final concentration of EDTA is 10 mM. The plate is allowed to incubate at room temperature for at least 30 minutes before being read on a Tecan SafireII plate reader configured for LanthaScreen™ TR-FRET (Excitation at 340 nm, emission at 495 nm and 520 nm). The final readout is the emission ratio 520 nm/495 nm. Each data point is the average of 4 replicates.

[6] = target: T2, VEGFR2 (KDR) (Homo sapiens, UniProt P35968); assay: LanthaScreen TR-FRET kinase assay, VEGFR2 (KDR); assay type: biochemical; details: for inhibition of FRET signal of VEGFR2 tyrosine kinase: compounds at 25 micromolar, FIG. 3
T2 construct: purchased Invitrogen
Experimental: as §7, §8

[7] = target: T3, EGFR (Homo sapiens, UniProt P00533); assay: LanthaScreen TR-FRET kinase assay, EGFR; assay type: biochemical; set-up: purchased Invitrogen; details: compounds at 25 micromolar; FIG. 1
[8] = tested on: HT29 cells; details: up to 100 nM; un-starved HT29 cells; data not shown
[9] = target: T3, EGFR; details: known inhibitors; cited from earlier work
[10] = compounds at 25 micromolar, FIG. 2

T1 sequence (P17948 27-1338): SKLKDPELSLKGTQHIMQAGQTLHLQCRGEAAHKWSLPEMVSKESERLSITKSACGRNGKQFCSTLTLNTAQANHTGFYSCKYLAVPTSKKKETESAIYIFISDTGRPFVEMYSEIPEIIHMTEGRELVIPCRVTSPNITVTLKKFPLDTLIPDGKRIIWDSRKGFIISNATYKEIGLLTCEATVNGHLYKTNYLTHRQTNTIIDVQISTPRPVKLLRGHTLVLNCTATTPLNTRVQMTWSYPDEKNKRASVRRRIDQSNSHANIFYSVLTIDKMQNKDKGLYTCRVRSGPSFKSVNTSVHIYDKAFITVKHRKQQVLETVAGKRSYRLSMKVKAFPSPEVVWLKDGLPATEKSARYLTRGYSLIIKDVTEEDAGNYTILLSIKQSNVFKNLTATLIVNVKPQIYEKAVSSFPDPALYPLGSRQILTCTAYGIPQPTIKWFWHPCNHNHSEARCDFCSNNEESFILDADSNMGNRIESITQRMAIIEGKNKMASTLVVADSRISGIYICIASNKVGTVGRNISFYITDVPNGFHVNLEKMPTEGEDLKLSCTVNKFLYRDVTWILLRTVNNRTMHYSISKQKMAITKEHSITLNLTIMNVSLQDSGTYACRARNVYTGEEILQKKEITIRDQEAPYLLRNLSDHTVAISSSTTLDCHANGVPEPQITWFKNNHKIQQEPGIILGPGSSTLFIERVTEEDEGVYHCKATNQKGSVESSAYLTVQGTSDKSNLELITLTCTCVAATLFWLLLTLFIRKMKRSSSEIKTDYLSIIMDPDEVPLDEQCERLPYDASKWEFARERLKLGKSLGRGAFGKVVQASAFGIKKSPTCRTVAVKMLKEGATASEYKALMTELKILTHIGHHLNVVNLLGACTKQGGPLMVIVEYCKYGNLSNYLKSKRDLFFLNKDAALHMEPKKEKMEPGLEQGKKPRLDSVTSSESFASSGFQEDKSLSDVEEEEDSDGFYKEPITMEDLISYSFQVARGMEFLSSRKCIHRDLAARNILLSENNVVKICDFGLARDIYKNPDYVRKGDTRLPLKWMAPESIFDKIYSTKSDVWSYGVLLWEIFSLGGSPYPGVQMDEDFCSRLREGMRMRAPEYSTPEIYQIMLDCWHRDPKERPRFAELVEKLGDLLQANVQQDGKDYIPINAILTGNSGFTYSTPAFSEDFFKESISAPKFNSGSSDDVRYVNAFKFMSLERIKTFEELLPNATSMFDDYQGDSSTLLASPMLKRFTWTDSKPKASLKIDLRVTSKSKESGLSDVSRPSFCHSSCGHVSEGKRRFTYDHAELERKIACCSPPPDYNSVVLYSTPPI
T2 sequence (P35968 20-1356): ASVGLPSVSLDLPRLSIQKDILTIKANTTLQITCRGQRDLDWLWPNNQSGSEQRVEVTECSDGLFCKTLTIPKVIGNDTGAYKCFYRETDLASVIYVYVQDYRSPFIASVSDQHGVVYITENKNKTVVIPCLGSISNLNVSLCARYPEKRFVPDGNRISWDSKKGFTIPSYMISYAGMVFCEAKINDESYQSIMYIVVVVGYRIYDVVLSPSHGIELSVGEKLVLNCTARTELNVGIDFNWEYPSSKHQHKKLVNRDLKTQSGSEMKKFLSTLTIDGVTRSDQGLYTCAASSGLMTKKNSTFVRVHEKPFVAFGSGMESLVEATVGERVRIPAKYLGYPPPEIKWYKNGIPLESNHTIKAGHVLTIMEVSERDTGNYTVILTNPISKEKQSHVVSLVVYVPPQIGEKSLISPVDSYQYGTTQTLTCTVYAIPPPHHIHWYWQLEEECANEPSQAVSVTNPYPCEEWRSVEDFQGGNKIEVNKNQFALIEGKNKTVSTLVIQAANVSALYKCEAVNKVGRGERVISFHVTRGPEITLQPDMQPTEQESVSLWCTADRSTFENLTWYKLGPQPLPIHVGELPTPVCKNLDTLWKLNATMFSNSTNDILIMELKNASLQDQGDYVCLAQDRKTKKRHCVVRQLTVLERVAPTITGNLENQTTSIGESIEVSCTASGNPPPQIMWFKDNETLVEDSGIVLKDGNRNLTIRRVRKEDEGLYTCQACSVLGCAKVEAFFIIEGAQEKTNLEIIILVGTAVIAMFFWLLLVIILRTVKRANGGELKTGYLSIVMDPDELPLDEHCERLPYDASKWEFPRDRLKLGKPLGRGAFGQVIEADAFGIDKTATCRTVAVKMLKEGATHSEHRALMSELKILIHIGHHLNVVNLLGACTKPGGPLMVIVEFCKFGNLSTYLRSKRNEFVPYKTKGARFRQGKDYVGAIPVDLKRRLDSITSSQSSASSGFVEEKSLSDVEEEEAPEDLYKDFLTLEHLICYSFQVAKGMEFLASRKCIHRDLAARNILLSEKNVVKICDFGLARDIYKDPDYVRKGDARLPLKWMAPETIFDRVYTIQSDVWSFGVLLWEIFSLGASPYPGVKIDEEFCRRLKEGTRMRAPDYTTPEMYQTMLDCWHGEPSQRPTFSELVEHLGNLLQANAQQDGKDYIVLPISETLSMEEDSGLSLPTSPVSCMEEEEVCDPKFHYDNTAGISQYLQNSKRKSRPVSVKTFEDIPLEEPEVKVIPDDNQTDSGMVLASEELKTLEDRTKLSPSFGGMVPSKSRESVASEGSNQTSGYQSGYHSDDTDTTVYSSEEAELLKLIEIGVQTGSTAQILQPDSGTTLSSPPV
T3 sequence (P00533 25-1210): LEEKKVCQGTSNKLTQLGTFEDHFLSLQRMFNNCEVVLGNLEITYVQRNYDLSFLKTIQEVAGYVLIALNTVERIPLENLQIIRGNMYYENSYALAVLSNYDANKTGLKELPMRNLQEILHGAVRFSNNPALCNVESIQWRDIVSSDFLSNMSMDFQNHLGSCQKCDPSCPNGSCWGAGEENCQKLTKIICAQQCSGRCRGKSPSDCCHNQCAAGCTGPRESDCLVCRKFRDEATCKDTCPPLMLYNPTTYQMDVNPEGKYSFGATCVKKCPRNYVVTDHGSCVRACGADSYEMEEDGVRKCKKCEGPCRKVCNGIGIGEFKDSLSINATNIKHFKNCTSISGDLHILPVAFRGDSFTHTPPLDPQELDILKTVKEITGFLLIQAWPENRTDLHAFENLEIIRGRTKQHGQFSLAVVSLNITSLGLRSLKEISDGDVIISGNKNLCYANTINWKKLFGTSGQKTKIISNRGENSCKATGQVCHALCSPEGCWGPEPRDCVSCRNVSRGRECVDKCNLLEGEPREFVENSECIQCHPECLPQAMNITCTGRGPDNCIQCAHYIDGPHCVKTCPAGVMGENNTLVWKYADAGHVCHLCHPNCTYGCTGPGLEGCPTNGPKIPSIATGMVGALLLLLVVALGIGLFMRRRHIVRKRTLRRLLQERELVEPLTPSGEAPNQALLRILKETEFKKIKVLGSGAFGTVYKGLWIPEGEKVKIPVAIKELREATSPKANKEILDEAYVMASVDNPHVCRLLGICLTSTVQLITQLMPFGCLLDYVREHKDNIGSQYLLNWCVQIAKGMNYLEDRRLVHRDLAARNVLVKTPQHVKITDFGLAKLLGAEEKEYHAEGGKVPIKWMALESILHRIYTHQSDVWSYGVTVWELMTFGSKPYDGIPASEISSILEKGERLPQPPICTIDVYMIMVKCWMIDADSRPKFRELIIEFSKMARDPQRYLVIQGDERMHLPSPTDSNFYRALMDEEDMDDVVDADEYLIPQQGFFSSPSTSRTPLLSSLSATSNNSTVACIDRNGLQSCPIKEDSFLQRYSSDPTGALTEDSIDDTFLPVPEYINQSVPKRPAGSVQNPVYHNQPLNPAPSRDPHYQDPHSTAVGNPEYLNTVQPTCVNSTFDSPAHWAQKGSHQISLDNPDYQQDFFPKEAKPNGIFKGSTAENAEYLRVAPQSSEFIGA

COc1cc2ncnc(Nc3cccc(Cl)c3)c2cc1OC [AG1478]
impact on DMR signal of MTX in HT29 ([1]; MTX at 16 micromolar): partial inhibition | impact on DMR signal of NT in HT29 ([2]; NT at 2 nM): partial inhibition

O=C1Nc2ccc(Br)cc2/C1=C/c1cc2c([nH]1)CCCC2 [VEGFR2 tyrosine kinase inhibitor II, (Z)-5-Bromo-3-(4,5,6,7-tetrahydro-1H-indol-2-ylmethylene)-1,3-dihydroindol-2-one]
impact on DMR signal of EGF in A431 ([3]; EGF at 32 nM): little impact | impact on DMR signal of EGF in HT29 ([4]; EGF at 2 nM): little impact | impact on DMR signal of MTX in HT29 ([1]; MTX at 16 micromolar): little impact | impact on DMR signal of NT in HT29 ([2]; NT at 2 nM): little impact

CN[C@@H]1C[C@H]2O[C@@](C)([C@@H]1OC)n1c3ccccc3c3c4c(c5c6ccccc6n2c5c31)C(=O)NC4 [staurosporine, reference compound]
inhibition of FRET signal of VEGFR1 tyrosine kinase ([5]; at 10 micromolar): completely inhibited

C[C@@H](N)[C@H]1CC[C@H](C(=O)Nc2ccncc2)CC1 [Compound Y-27632, reference compound]
attenuation of FRET signal for VEGFR2 tyrosine kinase ([6]; concentration not given): significantly attenuated

CCCCCCc1csc2c(CCCCCC)c(C(=O)O)sc12 [Compound J, 3,6-Dihexyl-thieno[3,2-b]thiophene-2-carboxylic acid]
inhibition of FRET signal of VEGFR1 tyrosine kinase [5, 10]: less potent than the others | inhibition of FRET signal of VEGFR2 tyrosine kinase [6]: less potent than the others | inhibition of FRET signal of EGFR tyrosine kinase [7]: less potent than the others

c1ccc(-c2cnc(Nc3ccc(OCCN4CCCC4)cc3)s2)cc1 [Flt3 inhibitor III, (5-Phenyl-thiazol-2-yl)-(4-(2-pyrrolidin-1-yl-ethoxy)-phenyl)-amine]
impact on DMR signal of EGF in A431 ([3]; EGF at 32 nM): little impact | impact on DMR signal of EGF in HT29 ([4]; EGF at 2 nM): little impact | impact on DMR signal of MTX in HT29 ([1]; MTX at 16 micromolar): little impact | impact on DMR signal of NT in HT29 ([2]; NT at 2 nM): little impact

CCOC(=O)c1c(C)[nH]c(/C=C2\C(=O)Nc3ccccc32)c1C [VEGFR2 tyrosine kinase inhibitor I, (Z)-3-[(2,4-Dimethyl-3-(ethoxycarbonyl)pyrrol-5-yl)methylidenyl]indolin-2-one]
impact on DMR signal of EGF in A431 ([3]; EGF at 32 nM): little impact | impact on DMR signal of EGF in HT29 ([4]; EGF at 2 nM): little impact | impact on DMR signal of MTX in HT29 ([1]; MTX at 16 micromolar): little impact | impact on DMR signal of NT in HT29 ([2]; NT at 2 nM): little impact

VEGF
DMR signal triggered [8]: very small DMR signal

O=C(O)c1cc(N(Cc2ccccc2O)Cc2cc(O)ccc2O)ccc1O [Lavendustin A]
strength as EGFR inhibitor [9]: weak EGFR inhibitor

6H-Indeno[1,2-e]tetrazolo[1,5-b][1,2,4]triazin-6-one & 10H-Indeno[2,1-e]tetrazolo[1,5-b][1,2,4]triazin-10-one [dual PDK1/AKT/Flt1 pathway inhibitor]
effect on early P-DMR event in the EGF response in A431 ([3]; EGF at 32 nM, early P-DMR): almost completely attenuated | effect on early P-DMR event of the EGF response in HT29 ([4]; EGF at 2 nM, early P-DMR): almost completely attenuated | effect on late P-DMR event of the EGF response in HT29 ([4]; EGF at 2 nM, late P-DMR): almost completely attenuated

CCCCCCCCCCc1csc2c(CCCCCC)c(C(=O)O)sc12 [I]
modulation of EGF response in A431, N-DMR ([3]; EGF at 32 nM, N-DMR ~30 min after EGF stimulation): −65% | modulation of EGF response in A431, early P-DMR ([3]; EGF at 32 nM, early P-DMR ~5 min after EGF stimulation): −60% | modulation index score, EGF in A431 N-DMR ([3]; score = modulation percentage/10, 2nd coordinate): −6.5 | modulation of EGF response in HT29, early P-DMR ([4]; EGF at 2 nM, early P-DMR ~5 min after EGF stimulation): −70% | modulation of EGF response in HT29, late P-DMR ([4]; EGF at 2 nM, late P-DMR ~50 min after EGF stimulation): −100% | modulation index score, EGF in HT29 early P-DMR ([4]; score = modulation percentage/10, 3rd coordinate): −7 | modulation index score, EGF in HT29 late P-DMR ([4]; score = modulation percentage/10, 4th coordinate): −10 | modulation of MTX response in HT29, P-DMR ([1]; MTX at 16 micromolar, P-DMR 50 min after MTX stimulation): −60% | modulation index score, MTX in HT29 P-DMR ([1]; score = modulation percentage/10, 5th coordinate): −6 | modulation of NT response in HT29, P-DMR ([2]; NT at 2 nM, P-DMR 50 min after NT stimulation): −106% | modulation index score, NT in HT29 P-DMR ([2]; score = modulation percentage/10, 6th coordinate): −10.6

CCCCCCc1csc2cc(C(=O)O)sc12 [Compound H, 6-hexyl-thieno[3,2-b]thiophene-2-carboxylic acid]
inhibition of FRET signal of VEGFR1 tyrosine kinase [5, 10]: less potent than the others | inhibition of FRET signal of VEGFR2 tyrosine kinase [6]: less potent than the others | inhibition of FRET signal of EGFR tyrosine kinase [7]: less potent than the others

Cc1csc2c1sc1cc(C(=O)O)sc12 [Compound K, 5-methyldithieno[3,2-b:2′3′-d] thiophene-2-carboxyl acid]
inhibition of FRET signal of VEGFR1 tyrosine kinase [5, 10]: less potent than the others | inhibition of FRET signal of VEGFR2 tyrosine kinase [6]: less potent than the others | inhibition of FRET signal of EGFR tyrosine kinase [7]: less potent than the others
